According to paper PMC8253220, “Molecular design, synthesis and in vitro biological evaluation of thienopyrimidine–hydroxamic acids as chimeric kinase HDAC inhibitors: a challenging approach to combat cancer” (Journal of Enzyme Inhibition and Medicinal Chemistry, 2021):
Several values for one entry are separate records, joined by “and”; a condition that tells them apart may be missing. Equal entries are not always repeated.

Tests used:
BT-549 = test: NCI one-dose screen; type: cell-based, human; settings: Breast BT-549, 10 µM single dose
Summary of the method: (§1)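 One concentration (10 μM) applied to each line of the full NCI-60 panel; percent growth compared against untreated cells.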

SN12C = test: NCI one-dose screen; type: cell-based, human; settings: Renal SN12C, 10 µM single dose
Summary of the method: as §1

SK-MEL-5 = test: NCI one-dose screen; type: cell-based, human; settings: Melanoma SK-MEL-5, 10 µM single dose
Summary of the method: as §1

SNB-75 = test: NCI one-dose screen; type: cell-based, human; settings: CNS SNB-75, 10 µM single dose
Summary of the method: (§2)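 Single dose of 10 μM tested across the full NCI-60 cell panel. Values are percent growth inhibition relative to untreated control cells, following standard NCI methodology.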

U251 = test: NCI one-dose screen; type: cell-based, human; settings: CNS U251, 10 µM single dose
Summary of the method: as §2

HCT-15 = test: NCI one-dose screen; type: cell-based, human; settings: Colon HCT-15, 10 µM single dose
Summary of the method: as §1

NCI/ADR-RES = test: NCI one-dose screen; type: cell-based, human; settings: Ovarian NCI/ADR-RES, 10 µM single dose
Summary of the method: as §1

SK-MEL-28 = test: NCI one-dose screen; type: cell-based, human; settings: Melanoma SK-MEL-28, 10 µM single dose
Summary of the method: (§3)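 Following the standard NCI-60 protocol, compounds were applied once at 10 μM to all 60 cancer lines. Read-out is percent growth versus untreated controls, expressed as inhibition %.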

UO-31 = test: NCI one-dose screen; type: cell-based, human
Summary of the method: as §2

OVCAR-4 = test: NCI one-dose screen; type: cell-based, human; settings: Ovarian OVCAR-4, 10 µM single dose
Summary of the method: as §1

NCI-H322M = test: NCI one-dose screen; type: cell-based, human; settings: NSCLC NCI-H322M, 10 µM single dose
Summary of the method: as §1

NCI-H23 = test: NCI one-dose screen; type: cell-based, human; settings: NSCLC NCI-H23, 10 µM single dose
Summary of the method: (§4)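 Treated at 10 μM (single dose) within the NCI full 60-line panel. Inhibition % computed from growth against untreated control.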

CCRF-CEM = test: NCI one-dose screen; type: cell-based, human; settings: Leukemia CCRF-CEM, 10 µM single dose
Summary of the method: as §1

PC-3 = test: NCI one-dose screen; type: cell-based, human; settings: Prostate PC-3, 10 µM single dose
Summary of the method: as §3

NCI-H460 = test: NCI one-dose screen; type: cell-based, human; settings: NSCLC NCI-H460, 10 µM single dose
Summary of the method: as §1

HL-60(TB) = test: NCI one-dose screen; type: cell-based, human; settings: Leukemia HL-60(TB), 10 µM single dose
Summary of the method: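 At 10 μM, a single concentration, compounds were evaluated for antiproliferative effect in the NCI 60-line screen, with growth expressed relative to untreated control cells.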

OVCAR-5 = test: NCI one-dose screen; type: cell-based, human; settings: Ovarian OVCAR-5, 10 µM single dose
Summary of the method: as §1

HT29 = test: NCI one-dose screen; type: cell-based, human; settings: Colon HT29, 10 µM single dose
Summary of the method: as §1

OVCAR-8 = test: NCI one-dose screen; type: cell-based, human; settings: Ovarian OVCAR-8, 10 µM single dose
Summary of the method: as §1

MDA-MB-468 = test: NCI one-dose screen; type: cell-based, human
Summary of the method: as §4

K-562 = test: NCI one-dose screen; type: cell-based, human; settings: Leukemia K-562, 10 µM single dose
Summary of the method: as §1

MDA-MB-435 = test: NCI one-dose screen; type: cell-based, human; settings: Melanoma MDA-MB-435, 10 µM single dose
Summary of the method: as §1

full NCI 60 cell panel = test: NCI one-dose screen, whole panel statistics; type: cell-based, human; settings: 1.00E-5 Molar
Protocol: All of the synthesised structures were selected and submitted to NCI based on computer modelling techniques and the degree of diversity of structures for the evaluation of their antiproliferative activity. The 20 synthesised compounds were selected with their respective NCI codes [NCS D-820157- NCS D-820176] for the inhibition percent assay at an initial single dose of 10 μM on the full NCI 60 cell panel, where the mean graph of the percent growth for all compounds on the full NCI cell panel is evaluated, compared to the untreated control cells (Supplementary Material). In vitro cell line inhibition % of all synthesised compounds is represented in (Table 1 of Supplementary Material).
All of the synthesised compounds (20) were submitted to NCI and selected for in vitro anticancer assay against a panel of 60 cancer cell lines. The methodology of assay and calculations is as reported.

EGFR = EGFR (Homo sapiens, UniProt P00533); test: In vitro EGFR tyrosine kinase inhibitory assay (Z'-LYTE, SelectScreen); type: biochemical
Chain of EGFR (P00533 25-1210): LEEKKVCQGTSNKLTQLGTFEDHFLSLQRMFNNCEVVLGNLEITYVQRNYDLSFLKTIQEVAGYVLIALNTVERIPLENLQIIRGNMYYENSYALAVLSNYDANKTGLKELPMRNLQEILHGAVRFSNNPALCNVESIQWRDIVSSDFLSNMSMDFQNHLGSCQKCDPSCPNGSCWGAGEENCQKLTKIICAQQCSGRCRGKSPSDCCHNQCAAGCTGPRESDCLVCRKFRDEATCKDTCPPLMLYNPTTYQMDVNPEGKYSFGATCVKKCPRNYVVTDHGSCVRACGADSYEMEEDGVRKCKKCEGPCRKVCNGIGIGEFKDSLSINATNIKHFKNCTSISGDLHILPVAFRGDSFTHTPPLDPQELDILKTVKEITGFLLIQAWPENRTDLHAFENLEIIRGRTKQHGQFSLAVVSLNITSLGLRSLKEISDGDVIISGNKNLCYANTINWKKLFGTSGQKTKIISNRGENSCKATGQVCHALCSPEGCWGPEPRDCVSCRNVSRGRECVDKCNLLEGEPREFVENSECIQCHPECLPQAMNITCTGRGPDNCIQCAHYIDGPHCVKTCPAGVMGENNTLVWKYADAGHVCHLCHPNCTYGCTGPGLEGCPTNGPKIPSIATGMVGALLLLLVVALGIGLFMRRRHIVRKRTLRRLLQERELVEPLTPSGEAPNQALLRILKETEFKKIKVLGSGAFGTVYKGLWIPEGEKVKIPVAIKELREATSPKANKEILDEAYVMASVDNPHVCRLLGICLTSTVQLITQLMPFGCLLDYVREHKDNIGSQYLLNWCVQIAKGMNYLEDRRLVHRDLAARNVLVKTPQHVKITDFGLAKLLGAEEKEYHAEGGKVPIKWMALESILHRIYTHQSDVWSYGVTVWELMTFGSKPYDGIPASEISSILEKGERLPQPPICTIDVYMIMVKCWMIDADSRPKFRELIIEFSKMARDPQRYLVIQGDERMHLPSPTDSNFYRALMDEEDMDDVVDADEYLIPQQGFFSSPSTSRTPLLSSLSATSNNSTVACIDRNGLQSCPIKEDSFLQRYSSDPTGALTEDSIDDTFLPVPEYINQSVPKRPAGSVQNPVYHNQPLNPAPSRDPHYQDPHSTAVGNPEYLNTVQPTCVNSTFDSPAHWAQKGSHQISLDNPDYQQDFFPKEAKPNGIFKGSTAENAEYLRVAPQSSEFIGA
Protocol: The target compounds were evaluated for their in vitro inhibitory activities against EGFR, VEGFR-2, and HDAC6. The EGFR and VEGFR-2 inhibitory assays were performed at Thermo Fischer Scientific, Madison, WI, USA (SelectScreenServices@thermofisher.com). The HDAC inhibitory assays were performed at BPS Bioscience, San Diego, CA, USA (www.bpsbioscience.com). Initially, all of the synthesised target compounds were evaluated for their percent inhibitory activity against EGFR, VEGFR-2, and HDACs at 10 µM single dose concentration, in which their mean percent inhibition is summarised in (Figure 5, Tables 1 and [2]). Representative compounds were evaluated for their percent inhibitory activity against EGFR and VEGFR-2 at 6 different concentrations (0.1 nM, 1 nM, 10 nM, 100 nM, 1 µM, 10 µM) to subsequently calculate their IC50 values (Table 3). Additionally, all of the synthesised target compounds were submitted to the National Cancer Institute “NCI” Bethesda, Maryland, USA (www.dtp.nci.nih.gov), to evaluate theirs in vitro antiproliferative activities against NCI 60- cancer cell line panel.
In vitro enzyme inhibition determination for the synthesised compounds was carried out in Thermo Fischer Scientific, Madison, WI, USA (SelectScreenServices@thermofisher.com). The EGFR and VEGFR-2 tyrosine kinase % inhibitory activity at a single-dose concentration of 10 µM was performed initially then representative compounds were evaluated at single-dose concentrations of (0.1 nM, 1 nM, 10 nM, 100 nM, 1 µM) using ZYLTE technology. A fluorescence-based, coupled-enzyme format is employed in the biochemical assay and depends on the sensitivity of proteolytic cleavage to non-phosphorylated and phosphorylated peptides. Then IC50 values for selected compounds were determined by GraphPad Prism at Misr international university.

Cc1c(C(=O)NCCCC(=O)NO)sc2ncnc(Nc3ccc(F)c(Cl)c3)c12 [Compound 20d, 4–(3-chloro-4-fluorophenylamino)-N-(4-(hydroxyamino)-4-oxobutyl)-5-methylthieno[2,3-d]pyrimidine-6-carboxamide]
melting point: 244 to 246 °C | Growth Percent (BT-549): 117.9% and 117.96% | Growth Percent (SN12C): 103.5% and 103.55% | Growth Percent (SK-MEL-5): 100.4% and 100.45% | Growth Percent (SNB-75): 90.4% and 90.45% | Growth Percent (U251): 99.1% and 99.18% | Growth Percent (HCT-15): 99.6% and 99.67% | Growth Percent (NCI/ADR-RES): 104.1% and 104.13% | Growth Percent (SK-MEL-28): 111.4% and 111.42% | inhibition at 10 µM (UO-31; Homo sapiens, renal UO-31, 10 μM): 23.7% | Growth Percent (UO-31; Renal UO-31, 10 µM single dose): 76.3% and 76.32% | Growth Percent (OVCAR-4): 104.8% and 104.88% | Growth Percent (NCI-H322M): 105.2% and 105.25% | Growth Percent (NCI-H23): 98.9% and 98.94% | Growth Percent (CCRF-CEM): 107.9% and 107.95% | Growth Percent (PC-3): 105.3% and 105.36% | Growth Percent (NCI-H460): 101.8% and 101.82% | Growth Percent (HL-60(TB)): 104.6% and 104.62% | Growth Percent (OVCAR-5): 100.1% and 100.15% | Growth Percent (HT29): 107.1% and 107.13% | Growth Percent (OVCAR-8): 99.6% and 99.61% | Growth Percent (MDA-MB-468; Breast MDA-MB-468, 10 µM single dose): 83.8% and 83.88% | inhibition at 10 µM (MDA-MB-468; Homo sapiens, breast MDA-MB-468, 10 μM): 16.2% | Growth Percent (K-562): 117.4% and 117.47% | Growth Percent (MDA-MB-435): 101.6% and 101.67% | Delta (one dose mean graph) (full NCI 60 cell panel): 26.89% | Range (one dose mean graph) (full NCI 60 cell panel): 47.82% | Mean Growth Percent (full NCI 60 cell panel; mean over panel): 103.21% | inhibition at 0.0001 µM (EGFR; 0.1 nM compound, 10 μM ATP, read-out: % Inhibition mean, EGFR (ErbB1)): 1% | inhibition at 0.001 µM (EGFR; 1 nM compound, 10 μM ATP, read-out: % Inhibition mean, EGFR (ErbB1)): 5% | inhibition at 0.01 µM (EGFR; 10 nM compound, 10 μM ATP, read-out: % Inhibition mean, EGFR (ErbB1)): 14% | inhibition at 0.1 µM (EGFR; 100 nM compound, 10 μM ATP, read-out: % Inhibition mean, EGFR (ErbB1)): 58% | inhibition at 1 µM (EGFR; 1000 nM compound, 10 μM ATP, read-out: % Inhibition mean, EGFR (ErbB1)): 93% | Mean % inhibition EGFR (EGFR; 10 µM single dose): 96% | inhibition at 10 µM (EGFR; 10 µM single dose): 97% | IC50 (EGFR; read-out: IC50 in enzyme assays EGFR): 68 nM
